Results from patent US20240083917A1, “Polycyclic Kinase Inhibitor” (priority 2021, published 2024).
pIC50: −log10 of the molar value.

Molecular target: DNA-PK (Homo sapiens (Human), UniProt P78527)
Assay: In vitro enzymatic activity, ADP-Glo Kinase Assay
Format: biochemical
Details: starting concentration 1 μM, 10 concentrations
Protocol: Test substances: the compounds of the present disclosure, whose structural formulas and preparation methods are shown in the Examples.
1. Preparation of 1-Fold Kinase Buffer
1) The detection starting concentration of the compound was 1 μM, and it was prepared to a 100-fold concentration, namely 100 μM. 2 μl of […] was taken, 198 μl of 100% DMSO was added, and it was prepared into 100 μM compound solution. 100 μl of the compound of 100-fold concentration was added to a second well on a 96-well plate, and 60 μl of 100% DMSO was added to other wells. 30 μl of the compound was taken from the second well and added to a third well, it was diluted downwards sequentially by 3 times, and there was a total of 10 concentrations diluted.
2) 100 μl of 100% DMSO and positive control wortmannin with the highest concentration (400 nM) were transferred to two empty wells as a Max well and a Min well respectively.
3) 50 nl of the compound was transferred to a 384-well plate by Echo.
3. Preparation of 2× Kinase Solution
1) The 1-fold kinase buffer was used to prepare 2-fold DNA-PK kinase solution.
2) 2.5 μl of the 2-fold kinase solution was transferred to a reaction well of the 384-well plate.
3) It was shaken, mixed uniformly, and still placed at a room temperature.
4. Preparation of 2× Substrate Solution
1) The 1-fold kinase buffer was used to prepare 2-fold substrate solution.
2) 2.5 μl of the 2-fold substrate solution was transferred to the reaction well of the 384-well plate for a starting reaction.
3) It was shaken, and mixed uniformly.
5. Kinase Reaction and Termination
1) The 384-well plate was covered by a cover, and incubated at 28° C for 3 hours.
2) 5 μl of ADP-Glo reagent was transferred, and incubated at 28° C. for 2 hours.
6. Detection of Reaction Result
1) 10 μl of a kinase detection reagent was transferred into the reaction well of the 384-well plate for terminating the reaction.
2) It was still placed at the room temperature for 30 minutes.
Sample values were read on Envision.
8. Inhibition Rate Calculation
1) Data was copied from Envision.
2) It was converted into inhibition rate data.
Inhibition percentage=(max-conversion)/(max-min)*100. Wherein, max refers to the conversion rate of a DMSO control, min refers to the conversion rate of a control without enzyme activity, and conversion refers to the conversion rate of the test compound at each concentration.
3) The data was imported into MS Excel and XLFit excel add-in version 5.4.0.8 was used for curve fitting.

| SMILES | pIC50 |
| --- | --- |
| Cc1cc2ncnn2cc1Nc1ncc2c(n1)N1C(=NC[C@]13CCCOCC3)N2C [Compound 19-2] | 8.77 |
| Cc1cc2ncnn2cc1Nc1ncc2nc3n(c2n1)C1(CCOCC1)CN3 [Compound 3, N-(7-methyl[1,2,4]-triazolo[1,5-a]pyridin-6-yl)-2′,3′,5′,6,6′,7-hexahydrospiro[imidazo[1,2-e]purine-8,4′-pyran]-2-amine] | 7.97 |
| Cc1cc2ncnn2cc1Nc1ncc2c(n1)N1C(=NCC13CCSCC3)N2C [Compound 8, 5-methyl-N-(7-methyl-[1,2,4]triazolo[1,5-a]pyridin-6yl)-2′,3′,5,5′,6′,7-hexahydrospiro[imidazo[1,2-]purine-8,4′thiopyran]-2-amine] | 9.05 |
| Cc1cc2ncnn2cc1Nc1ncc2c(n1)N1C(=NCC13CCC(O)CC3)N2C (single isomer, unassigned) [Compound 7-1, 5′-methyl-2′-((7-methyl-[1,2,4]-triazolo[1,5-a]pyridin-6-yl)amino)-5′,7″-dihydrospiro[cyclohexane-1,8′-imidazo[1,2-e]purine]-4-ol] | 9.21 |
| COC1CCC2(CC1)CN=C1N(C)c3cnc(Nc4cn5ncnc5cc4C)nc3N12 (single isomer, unassigned) [Compound 16-1, 4-methoxy-5′-methyl-N-(7-methyl-[1,2,4]triazolo[1,5-a]pyridin-6-yl)-5′,7′-dihydrospiro[cyclohexane-1,8′-imidazo[1,2-e]purin]-2′-amine] | 8.52 |
| Cc1cc2ncnn2cc1Nc1ncc2c(n1)N1C(=NCC13CCCOCC3)N2C (stereo not shown) [Compound 19, 5methyl-N-(7-methyl-[1,2,4]triazolo[1,5-a]pyridin-6-yl)-5,7-dihydrospiro[imidazo[1,2-e]purine-8,4′-oxepan]-2-amine] | 8.80 |
| COC1CCC2(CC1)CN=C1N(C)c3cnc(Nc4cn5ncnc5cc4C)nc3N12 (single isomer, unassigned) [Compound 16-2, 4-methoxy-5′-methyl-N-(7-methyl-[1,2,4]triazolo[1,5-a]pyridin-6-yl)-5′,7′-dihydrospiro[cyclohexane-1,8′-imidazo[1,2-e]purin]-2′-amine] | 8.66 |
| Cc1cc2ncnn2cc1Nc1ncc2c(n1)N1C(=NCC13CCOCC3)N2C [Compound 1, 5-methyl-N-(7-methyl-[1,2,4]triazolo[1,5-a]pyridin-6-yl)-2′,3′,5,5′,6′,7-hexanydrospiro[imidazo[1,2-e]purine-8,4′-pyran]-2-amine] | 9.09 |
| COC1(C)CCC2(CC1)CN=C1N(C)c3cnc(Nc4cn5ncnc5cc4C)nc3N12 (stereo not shown) [Compound 15-1, 4-methoxy-4,5′-dimethyl-N-(7-methyl-[1,2,4]triazolo[1,5-a]pyridin-6H)-5′7′-dihydrospiro[cyclohexane-1,8′-imidazo[1,2-e]purin]-2′-amine] | 8.86 |
| Cc1cc2ncnn2cc1Nc1ncc2c(n1)N1C(=NC[C@@]13CCCOCC3)N2C [Compound 19-1] | 8.96 |
| Cc1cc2ncnn2cc1Nc1ncc2nc3n(c2n1)C1(CCOCC1)CN3C [Compound 2, 6-methyl-N-(7-methyl-[1,2,4]triazolo[1,5-a]pyridin-6yl)-2′,3′,5′,6,6′,7-hexahydrospiro[imidazo[1,2-e]purine-8,4′-pyran]-2-amine] | 7.66 |
| Cc1cc2ncnn2cc1Nc1ncc2c(n1)N1C(=NCC13CC[S+]([O-])CC3)N2C (stereo not shown) [Compound 20, 5-methyl-2-((7-methyl-[1,5-a]pyridin-6-yl)amino)-2′,3′,5,5′,6′,7-hexanydrospiro[imidazo[1,2-e]purine-8,4′-thiopyran]-1′-oxide] | 7.73 |
| Cc1cc2ncnn2cc1Nc1ncc2c(n1)N1C(=NCC13CCCCC3)N2C [Compound 4, 5′-methyl-N-(7-methyl-[1,2,4]triazolo[1,5-a]pyridin-6-yl)-5′,7′-dihydrospiro[cyclonexane-1,8′-imidazo[1,2-e]purine]-2′-amine] | 9.10 |
| Cc1cc2ncnn2cc1Nc1ncc2c(n1)N1C(=NCC13CCOC3)N2C (stereo not shown) [Compound 18, 5′-methyl-N-(7-methyl-[1,2,4]-triazolo[1,5-a]pyridin-6-yl)-4,5,5′,7′-tetrahydro-2-H-spiro[furan-3, 8′-imidazo[1,2-e]purin]-2′-amine] | 8.85 |
| Cc1cc2ncnn2cc1Nc1ncc2c(n1)N1C(=NCC13CCS(=O)(=O)CC3)N2C [Compound 9, 5-methyl-2-((7-methyl-[1,2,4]-triazolo[1,5-a]pyridin-6-yl)amino)-2′,3′,5,5′,6′,7-hexahydrospiro[imidazo[1,2-e]purine-8,4′-thiopyran]1′,1′-dioxide] | 7.68 |
| Cc1cc2ncnn2cc1Nc1ncc2c(n1)N1C(=NCC13CCC(F)(F)CC3)N2C [Compound 5, 4,4-difluoro-5″-methyl-N-(7-methyl-[1,2,4]-triazolo[1,5-a]pyridin-6-yl)-5′,7′-dihydrospiro[cyclohexane-1,8′-imidazo[1,2-e]purine]-2′-amine] | 8.79 |
| Cc1cc2ncnn2cc1Nc1ncc2c(n1)N1C(=NCC13CCC(=O)CC3)N2C [Compound 6, 5′-methyl-2-((7-methyl-[1,2,4]-triazolo[1,5-a]pyridin-6-yl)amino)-5′,7′-dihydrospiro[cyclonexane-1,8′-imidazo[1,2-e]purine]-4-one] | 8.32 |
| Cc1cc2ncnn2cc1Nc1ncc2c(n1)N1C(=NCC1(C)CCO)N2C (stereo not shown) [Compound 17, 2-(5,8-dimethyl-2-((7-methyl-[1,2,4]-triazolo[1,5-a]pyridin-6-yl)amino)-7,8-dihydro-5H-imidazo[1,2-e]purin-8-yl) ethan-1-ol] | 8.01 |
| Cc1cc2ncnn2cc1Nc1ncc2c(n1)N1C(=NCC13CCC(O)CC3)N2C (single isomer, unassigned) [Compound 7-2, 5′-methyl-2′-((7-methyl-[1,2,4]-triazolo[1,5-a]pyridin-6-yl)amino)-5′,7″-dihydrospiro[cyclohexane-1,8′-imidazo[1,2-e]purine]-4-ol] | 9.14 |
